Laboratory results taken from patent US9120812B2, “Pyrimidooxazocine derivatives as mTOR-inhibitors” (SANOFI, priority 2012, dated 2015).

Key:
[1] = target: mTOR (human recombinant aa mTOR 1360-2549) (Homo sapiens (Human), UniProt P42345); assay: mTOR enzymatic test by TR-FRET (phosphorylation of GFP-4EBP1); assay type: biochemical
Outline: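 After a 30 min room-temperature kinase reaction, EDTA (10 mM final) and Tb-labelled phospho-Thr46 antibody (2 nM final) were added and incubated 60 min. Energy transfer from Tb to phosphorylated GFP-4EBP1 was read at 340 nm excitation, emissions 490/520 nm. Values derive from the 520/490 fluorescence ratio.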

U87MG tumour cells = assay: Test of in vitro proliferation of U87MG tumour cells; assay type: cell-based; settings: Homo sapiens, U-87 MG, 72 h, U87MG cells, 72 hours; read-out: U87 Cell Proliferation IC50
Procedure: Model 4: Test of in vitro Proliferation of U87MG Tumour Cells.
The cell growth is determined with the reagent CellTiter 96 AQueous One Solution Cell Proliferation Assay from Promega (Cat. No. G3581).

Akt-pS473 in U87MG cells = settings: Homo sapiens, U-87 MG, read-out: U87 Akt-pS473 % Inhibition or IC50, nM (IC50), U87MG cells
Procedure: Model 3: Cellular Test of Phosphorylation of the Epitope S473 of the Akt Protein on the U87MG Line Via an ELISA Test
An electrochemiluminescence signal is generated by a ruthenium-labelled anti-rabbit antibody.
After culturing for 16-20 hours (the cells are at 100% of confluence) at 37° C. under 5% CO2, 1 μl of the chemical compounds in 100% DMSO (1% DMSO final concentration on the cells) is added. The cells are incubated with the compounds for 3 hours at 37° C. under 5% CO2.
The free sites are blocked with 150 μl/well of a buffer of 50 mM Tris pH 7.5, 0.15 M NaCl, 0.02% Tween 20, 3% BSA with stirring at 450 rpm for 1 hour at room temperature, followed by a step of washing with 3×300 μl of a buffer of 50 mM Tris pH 7.5, 0.15 M NaCl, 0.02% Tween 20.
15 μl of cell lysate are mixed with 15 μl of a 50 mM buffer of Tris pH 7.5, 0.15 M NaCl, 0.02% Tween 20, 1% BSA in a precoated ELISA plate (see above), and incubated for 1 hour at room temperature with stirring, followed by a step of washing with 3×300 μl of a buffer of 50 mM Tris pH 7.5, 0.15 M NaCl, 0.02% Tween 20. The pS473 epitope of Akt is detected with a rabbit polyclonal antibody (Cell Signaling, SC9271), diluted 100-fold in 50 mM Tris pH 7.5, 0.15 M NaCl, 0.02% Tween 20, 1% BSA, 25 μl/well (incubation for 1 hour at room temperature with stirring at 450 rpm).
After washing (see above), revelation is performed with a ruthenium-labelled anti-rabbit antibody (MSD R32AB1), diluted 3000-fold in a 50 mM buffer of Tris pH 7.5, 0.15 M NaCl, 0.02% Tween 20, 1% BSA, 25 μl/well, followed by incubation for 1 hour at room temperature with stirring at 450 rpm, and the plates are covered with aluminium.
After a further washing step, the plates are emptied and 150 μl of MSD Read Buffer T diluted fourfold with water are added. The electrochemiluminescence is measured on the MSD Sector Imager 6000.

PI3Kα (p110α/p85α) = PI3Kα (p110α/p85α) (Homo sapiens (Human), UniProt P42336); assay: PI3Kα enzymatic test by measuring the consumption of ATP; assay type: biochemical
Sequence of PI3Kα (p110α/p85α) (P42336 whole entry): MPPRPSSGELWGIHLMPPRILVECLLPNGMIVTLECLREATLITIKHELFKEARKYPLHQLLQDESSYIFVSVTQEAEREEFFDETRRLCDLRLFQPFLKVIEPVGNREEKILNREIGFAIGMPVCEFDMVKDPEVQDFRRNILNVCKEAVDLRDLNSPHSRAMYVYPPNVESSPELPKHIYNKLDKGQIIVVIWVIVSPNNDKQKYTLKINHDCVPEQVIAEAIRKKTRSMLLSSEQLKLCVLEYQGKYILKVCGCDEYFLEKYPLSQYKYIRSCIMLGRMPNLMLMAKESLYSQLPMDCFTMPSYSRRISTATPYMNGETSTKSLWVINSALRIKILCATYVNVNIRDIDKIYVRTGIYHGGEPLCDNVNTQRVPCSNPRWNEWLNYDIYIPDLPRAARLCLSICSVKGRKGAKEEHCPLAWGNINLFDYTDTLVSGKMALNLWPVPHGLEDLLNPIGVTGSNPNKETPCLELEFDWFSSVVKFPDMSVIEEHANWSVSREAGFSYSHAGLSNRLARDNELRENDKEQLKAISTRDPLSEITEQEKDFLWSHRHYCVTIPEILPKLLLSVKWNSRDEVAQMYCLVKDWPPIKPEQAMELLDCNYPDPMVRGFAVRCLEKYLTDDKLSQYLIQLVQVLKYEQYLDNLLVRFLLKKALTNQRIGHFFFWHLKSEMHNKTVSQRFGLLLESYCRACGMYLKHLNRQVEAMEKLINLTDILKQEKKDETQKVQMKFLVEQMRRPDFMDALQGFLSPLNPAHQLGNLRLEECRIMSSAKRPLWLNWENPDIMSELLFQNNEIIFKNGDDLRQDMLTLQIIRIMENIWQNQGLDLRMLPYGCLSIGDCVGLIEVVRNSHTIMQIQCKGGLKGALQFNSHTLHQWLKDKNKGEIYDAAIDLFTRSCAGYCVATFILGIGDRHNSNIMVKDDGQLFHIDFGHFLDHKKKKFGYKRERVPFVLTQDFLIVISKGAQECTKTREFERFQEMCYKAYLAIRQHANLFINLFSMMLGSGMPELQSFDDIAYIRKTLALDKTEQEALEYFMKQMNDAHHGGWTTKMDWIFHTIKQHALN
Sequence of PI3Kα (p110α/p85α) (P27986 whole entry partner): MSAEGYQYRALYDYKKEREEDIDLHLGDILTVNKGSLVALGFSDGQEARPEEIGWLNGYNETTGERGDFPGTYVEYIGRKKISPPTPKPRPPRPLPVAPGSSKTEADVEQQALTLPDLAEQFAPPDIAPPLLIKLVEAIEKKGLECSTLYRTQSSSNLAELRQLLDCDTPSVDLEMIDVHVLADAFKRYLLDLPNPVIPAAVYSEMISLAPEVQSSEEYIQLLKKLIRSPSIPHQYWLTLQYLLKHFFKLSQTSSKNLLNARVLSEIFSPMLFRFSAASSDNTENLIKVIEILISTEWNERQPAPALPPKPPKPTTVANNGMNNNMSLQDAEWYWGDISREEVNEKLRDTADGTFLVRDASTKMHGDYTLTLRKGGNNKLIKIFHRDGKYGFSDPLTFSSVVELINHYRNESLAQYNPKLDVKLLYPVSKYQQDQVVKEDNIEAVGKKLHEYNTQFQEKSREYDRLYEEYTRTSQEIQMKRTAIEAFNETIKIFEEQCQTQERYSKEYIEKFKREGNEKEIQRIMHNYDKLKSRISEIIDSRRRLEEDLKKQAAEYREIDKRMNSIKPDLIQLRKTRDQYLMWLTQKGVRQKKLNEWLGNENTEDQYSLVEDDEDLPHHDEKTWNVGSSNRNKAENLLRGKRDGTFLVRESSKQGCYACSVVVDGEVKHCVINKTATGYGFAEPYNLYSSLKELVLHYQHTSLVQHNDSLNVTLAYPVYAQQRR
Outline: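 ATP consumption read out by KinaseGlo luminescence after a 90 min reaction of 1.7 μg/ml PI3Kα (p110α/p85α) with 2 μM ATP and 50 μM PIP2, buffered at pH 7.5 (Tris, 10 mM MgCl2, 1 mM EGTA, 0.03% Chaps, 1 mM DTT). Threefold dilution series over ≥10 000-fold range yield IC50.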

Sequence of mTOR (human recombinant aa mTOR 1360-2549) (P42345 1360-2549): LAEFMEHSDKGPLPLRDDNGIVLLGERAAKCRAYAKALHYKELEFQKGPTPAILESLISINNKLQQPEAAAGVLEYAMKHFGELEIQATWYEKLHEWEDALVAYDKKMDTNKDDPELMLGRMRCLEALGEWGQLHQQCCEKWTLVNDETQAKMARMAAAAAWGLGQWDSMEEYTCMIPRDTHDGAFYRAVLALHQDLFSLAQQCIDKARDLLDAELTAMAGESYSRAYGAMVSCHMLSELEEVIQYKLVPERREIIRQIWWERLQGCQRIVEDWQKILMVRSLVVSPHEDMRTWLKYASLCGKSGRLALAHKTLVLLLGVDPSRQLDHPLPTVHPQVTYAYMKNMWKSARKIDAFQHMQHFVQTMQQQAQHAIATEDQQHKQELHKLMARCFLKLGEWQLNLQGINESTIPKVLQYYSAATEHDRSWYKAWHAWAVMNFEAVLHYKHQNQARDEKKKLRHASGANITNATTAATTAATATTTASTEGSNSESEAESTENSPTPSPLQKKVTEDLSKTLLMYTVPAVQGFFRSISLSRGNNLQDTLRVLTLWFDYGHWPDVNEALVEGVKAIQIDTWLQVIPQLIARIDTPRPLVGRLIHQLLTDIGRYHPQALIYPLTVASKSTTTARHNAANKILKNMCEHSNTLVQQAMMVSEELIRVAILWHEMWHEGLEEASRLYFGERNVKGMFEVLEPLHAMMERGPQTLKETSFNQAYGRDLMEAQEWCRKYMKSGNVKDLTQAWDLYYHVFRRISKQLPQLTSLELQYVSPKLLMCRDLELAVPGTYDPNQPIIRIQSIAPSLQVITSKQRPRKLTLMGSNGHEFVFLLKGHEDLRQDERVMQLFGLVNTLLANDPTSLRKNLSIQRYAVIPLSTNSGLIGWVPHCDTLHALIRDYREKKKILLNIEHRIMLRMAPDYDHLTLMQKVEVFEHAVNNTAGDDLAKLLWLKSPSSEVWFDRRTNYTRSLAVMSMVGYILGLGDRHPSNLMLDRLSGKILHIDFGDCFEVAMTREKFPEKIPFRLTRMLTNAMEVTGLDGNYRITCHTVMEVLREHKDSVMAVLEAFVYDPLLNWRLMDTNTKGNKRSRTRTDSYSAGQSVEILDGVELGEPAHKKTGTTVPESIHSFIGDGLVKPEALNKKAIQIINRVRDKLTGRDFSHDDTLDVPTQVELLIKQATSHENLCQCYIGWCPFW

Compound | IC50 [1] [nM] | IC50 (U87MG tumour cells) [nM] | IC50 (Akt-pS473 in U87MG cells) [nM] | PI3Ka IC50 (PI3Kα (p110α/p85α)) [nM]
CCN1CC(C)(C)Oc2nc(N3CC4CCC(C3)O4)nc(-c3ccc(NC(=O)Nc4cccc(OC)c4)cc3)c2C1=O [Example 127, 1-{4-[6-Ethyl-8,8-dimethyl-2-(8-oxa-3-azabicyclo[3.2.1]oct-3-yl)-5-oxo-5,6,7,8-tetrahydro-9-oxa-1,3,6-triazabenzocyclohepten-4-yl]phenyl}-3-(3-methoxyphenyl)urea] | 16 | 79 | 24 | 3646
CC[C@H]1COCCN1c1nc2c(c(-c3ccc(NC(=O)NC)c(F)c3)n1)C(=O)N(CC)CC(C)(C)O2 [Example 228, 1-{4-[6-Ethyl-2-((S)-3-ethylmorpholin-4-yl)-8,8-dimethyl-5-oxo-5,6,7,8-tetrahydro-9-oxa-1,3,6-triazabenzocyclohepten-4-yl]-2-fluorophenyl}-3-methylurea] | 70 | 229 | 72 | 6600
CCN1CC(C)(C)Oc2nc(N3CC4CCC(C3)O4)nc(-c3ccc(NC(=O)Nc4ccc(C#N)nc4)c(F)c3)c2C1=O [Example 247, 1-(6-Cyanopyridin-3-yl)-3-{4-[6-ethyl-8,8-dimethyl-2-(8-oxa-3-azabicyclo[3.2.1]oct-3-yl)-5-oxo-5,6,7,8-tetrahydro-9-oxa-1,3,6-triazabenzocyclohepten-4-yl]-2-fluorophenyl}urea] | 26 | 62 | 8 | 7200
CCN1CC(C)(C)Oc2nc(N3CC4CCC(C3)O4)nc(-c3ccc(NC(=O)Nc4cncc(OC)n4)cc3)c2C1=O [Example 28, 1-{4-[6-ethyl-8,8-dimethyl-2-(8-oxa-3-azabicyclo[3.2.1]oct-3-yl)-5-oxo-5,6,7,8-tetrahydro-9-oxa-1,3,6-triazabenzocyclohepten-4-yl]phenyl}-3-(6-methoxypyrazin-2-yl)urea] | 59 | 508 | 42 | >10000
COCCN1CC(C)(C)Oc2nc(N3CCOC[C@@H]3C)nc(-c3ccc(NC(=O)Nc4cnn(C)c4)cc3)c2C1=O [Example 201, 1-{4-[6-(2-Methoxyethyl)-8,8-dimethyl-2-((S)-3-methylmorpholin-4-yl)-5-oxo-5,6,7,8-tetrahydro-9-oxa-1,3,6-triazabenzocyclohepten-4-yl]phenyl}-3-(1-methyl-1H-pyrazol-4-yl)urea] | 48 | 898 | 230 | 813
CCN1CC(C)(C)Oc2nc(N3CCOC[C@@H]3C)nc(-c3ccc(NC(=O)Nc4ccc(N5CCOCC5(C)C)nc4)c(F)c3)c2C1=O [Example 256, 1-[6-(3,3-Dimethylmorpholin-4-yl)pyridin-3-yl]-3-{4-[6-ethyl-8,8-dimethyl-2-((S)-3-methylmorpholin-4-yl)-5-oxo-5,6,7,8-tetrahydro-9-oxa-1,3,6-triazabenzocyclohepten-4-yl]-2-fluorophenyl}urea] | 196 | 83 | 42 | 199
CCNC(=O)Nc1ccc(-c2nc(N3CC4CCC(C3)O4)nc3c2C(=O)N(C2CCOCC2)CC(C)(C)O3)cc1 [Example 14, 1-{4-[8,8-dimethyl-2-(8-oxa-3-azabicyclo[3.2.1]oct-3-yl)-5-oxo-6-(tetrahydropyran-4-yl)-5,6,7,8-tetrahydro-9-oxa-1,3,6-triazabenzocyclohepten-4-yl]phenyl}-3-ethylurea] | 41 | 1420 | 458 | >10000
CCN1CC(C)(C)Oc2nc(N3CC4CCC(C3)O4)nc(-c3ccc(NC(=O)NC4COC4)c(F)c3)c2C1=O [Example 137, 1-{4-[6-Ethyl-8,8-dimethyl-2-(8-oxa-3-azabicyclo[3.2.1]oct-3-yl)-5-oxo-5,6,7,8-tetrahydro-9-oxa-1,3,6-triazabenzocyclohepten-4-yl]-2-fluorophenyl}-3-oxetan-3-ylurea] | 29 | 1330 | 241 | >10000
CCN1CC(C)(C)Oc2nc(N3CC4CCC(C3)O4)nc(-c3ccc(NC(=O)OC[C@H](C)O)c(F)c3)c2C1=O [Example 20, {4-[6-ethyl-8,8-dimethyl-2-(8-oxa-3-azabicyclo[3.2.1]oct-3-yl)-5-oxo-5,6,7,8-tetrahydro-9-oxa-1,3,6-triazabenzocyclohepten-4-yl]-2-fluorophenyl}carbamic acid (S)-2-hydroxypropyl ester] | 286 | 7590 | > 1000 | >10000
CCN1CC(C)(C)Oc2nc(N3CC4CCC(C3)O4)nc(-c3ccc(NC(=O)Nc4ccnc5[nH]ccc45)c(F)c3)c2C1=O [Example 86, 1-{4-[6-Ethyl-8,8-dimethyl-2-(8-oxa-3-azabicyclo[3.2.1]oct-3-yl)-5-oxo-5,6,7,8-tetrahydro-9-oxa-1,3,6-triazabenzocyclohepten-4-yl]-2-fluorophenyl}-3-(1H-pyrrolo[2,3-b]pyridin-4-yl)urea] | 377 | 490 | 144 | >10000
CCN1CC(C)(C)Oc2nc(N3CC4CCC(C3)O4)nc(-c3ccc(NC(=O)NCC4CCOCC4)c(F)c3)c2C1=O [Example 134, 1-{4-[6-Ethyl-8,8-dimethyl-2-(8-oxa-3-azabicyclo[3.2.1]oct-3-yl)-5-oxo-5,6,7,8-tetrahydro-9-oxa-1,3,6-triazabenzocyclohepten-4-yl]-2-fluorophenyl}-3-(tetrahydropyran-4-ylmethyl)urea] | 3160 | > 10000 | > 3000 | >10000
CCN1CC(C)(C)Oc2nc(N3CC4CCC(C3)O4)nc(-c3ccc(NC(=O)Nc4cc(OC)c(F)cc4F)cc3)c2C1=O [Example 155, 1-(2,4-Difluoro-5-methoxyphenyl)-3-{4-[6-ethyl-8,8-dimethyl-2-(8-oxa-3-azabicyclo[3.2.1]oct-3-yl)-5-oxo-5,6,7,8-tetrahydro-9-oxa-1,3,6-triazabenzocyclohepten-4-yl]phenyl}urea] | 79 | 142 | 59 | >10000
CCN1CC(C)(C)Oc2nc(N3CC4CCC(C3)O4)nc(-c3ccc(NC(=O)NCCF)cc3)c2C1=O [Example 123, 1-{4-[6-Ethyl-8,8-dimethyl-2-(8-oxa-3-azabicyclo[3.2.1]oct-3-yl)-5-oxo-5,6,7,8-tetrahydro-9-oxa-1,3,6-triazabenzocyclohepten-4-yl]phenyl}-3-(2-fluoroethyl)urea] | 22 | 221 | 150 | 3627
COCCN1CC(C)(C)Oc2nc(N3CCOC[C@@H]3C)nc(-c3ccc(NC(=O)Nc4ccon4)cc3)c2C1=O [Example 180, 1-Isoxazol-3-yl-3-{4-[6-(2-methoxyethyl)-8,8-dimethyl-2-((S)-3-methylmorpholin-4-yl)-5-oxo-5,6,7,8-tetrahydro-9-oxa-1,3,6-triazabenzocyclohepten-4-yl]phenyl}urea] | 11 | 146 | 65 | 604
CCN1CC(C)(C)Oc2nc(N3[C@@H]4CC[C@H]3COC4)nc(-c3ccc(NC(=O)Nc4ccncc4F)cc3)c2C1=O [Example 75, 1-[4-((1S,5R)-6-Ethyl-8,8-dimethyl-2-3-oxa-8-azabicyclo[3.2.1]oct-8-yl-5-oxo-5,6,7,8-tetrahydro-9-oxa-1,3,6-triazabenzocyclohepten-4-yl)phenyl]-3-(3-fluoropyridin-4-yl)urea] | 40 | 47 | 8 | 5570
CCN1CC(C)(C)Oc2nc(N3CC4CCC(C3)O4)nc(-c3ccc(NC(=O)NCCOC)c(F)c3)c2C1=O [Example 131, 1-{4-[6-Ethyl-8,8-dimethyl-2-(8-oxa-3-azabicyclo[3.2.1]oct-3-yl)-5-oxo-5,6,7,8-tetrahydro-9-oxa-1,3,6-triazabenzocyclohepten-4-yl]-2-fluorophenyl}-3-(2-methoxyethyl)urea] | 383 | 5900 | 1990 | >10000
CCN1CC(C)(C)Oc2nc(N3CC4CCC(C3)O4)nc(-c3ccc(NC(=O)OCCO)c(F)c3)c2C1=O [Example 222, {4-[6-Ethyl-8,8-dimethyl-2-(8-oxa-3-azabicyclo[3.2.1]oct-3-yl)-5-oxo-5,6,7,8-tetrahydro-9-oxa-1,3,6-triazabenzocyclohepten-4-yl]-2-fluorophenyl}carbamic acid 2-hydroxyethyl ester] | 123 | 1680 | 213 | >10000
COCCN1CC(C)(C)Oc2nc(N3CC4CCC(C3)O4)nc(-c3ccc(NC(=O)Nc4ccc(OC)nc4)c(F)c3)c2C1=O [Example 178, 1-{2-Fluoro-4-[6-(2-methoxyethyl)-8,8-dimethyl-2-(8-oxa-3-azabicyclo[3.2.1]oct-3-yl)-5-oxo-5,6,7,8-tetrahydro-9-oxa-1,3,6-triazabenzocyclohepten-4-yl]phenyl}-3-(6-methoxypyridin-3-yl)urea] | 45 | 252 | 104 | >10000
